# Experimental data published in PubChem BioAssay AID1552 (Sanford-Burnham Center for Chemical Genomics, 2009).
# Active and inactive are the calls of the source. How the calls were made is not given here.
# Biological target: Ubiquitin-conjugating enzyme E2 N (Homo sapiens) (UniProt P61088)
# Test: UBE2N binders by NMR, biophysical, purified protein (AID 1552)
# Conditions: NMR binding to purified UBE2N
# Chain of Ubiquitin-conjugating enzyme E2 N (Homo sapiens) (P61088 whole entry, looked up): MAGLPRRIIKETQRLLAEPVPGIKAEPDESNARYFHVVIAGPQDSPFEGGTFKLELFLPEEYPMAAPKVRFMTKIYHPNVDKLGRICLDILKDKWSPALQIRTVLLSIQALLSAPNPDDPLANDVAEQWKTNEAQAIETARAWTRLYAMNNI
row,Compound,Kd
1,CNC(=O)C(=O)Nc1ccc(F)cc1,> 4 mM (inactive)
2,CC(=O)Nc1sc(C)c(C)c1C(N)=O,> 4 mM (inactive)
3,CC(=O)c1c(C)n([O-])c2ccccc2[n+]1=O,> 4 mM (inactive)
4,CC(=O)c1cnc2nc(C(F)(F)F)nn2c1C,> 4 mM (inactive)
5,CC1CCN(C(=O)c2ccc(NS(C)(=O)=O)cc2)CC1,> 4 mM (inactive)
6,O=C1CCCC(=O)N1Cc1ccco1,> 4 mM (inactive)
7,O=C1CCc2ccccc2CN1,> 4 mM (inactive)
8,Cc1nnc(C)n1/N=C/c1cccs1,> 4 mM (inactive)
9,COc1ccc2c(c1)OCC(Cc1ccc(OC)c(OC)c1)C2=O (stereo not drawn),> 4 mM (inactive)
10,O=C(NC1=NCCS1)c1ccc(Cl)s1,> 4 mM (inactive)
11,Cc1ccc2nc(SCC(=O)O)nc(C)c2c1,> 4 mM (inactive)
12,COC(=O)c1cc2cc(N)ccc2s1,> 4 mM (inactive)
13,OCc1ccc(-c2ccccn2)s1,> 4 mM (inactive)
14,CNC(=O)C(=O)Nc1ccc(C)c(C)c1,> 4 mM (inactive)
15,NCc1cccc(-n2cccc2)c1,> 4 mM (inactive)
16,Cc1cccc(NS(=O)(=O)c2cccs2)n1,> 4 mM (inactive)
17,Nc1nc(-c2ccc(F)c(F)c2)cs1,> 4 mM (inactive)
18,C[C@H]1[C@H](C)CC[C@]2(CO)CC[C@]3(C)C(=CCC4[C@@]5(C)CC[C@H](O)C(C)(C)C5CC[C@]43C)[C@H]12 (stereo partly drawn),> 4 mM (inactive)
19,CCC(=O)OC1[C@@H]2CC3=C4CC(=O)O[C@@H](c5ccoc5)[C@]4(C)CCC3C(C)(C2=O)[C@@H](CC(=O)OC)C1(C)C (stereo partly drawn),> 4 mM (inactive)
20,NC(=O)CSc1ccc(Br)cc1,> 4 mM (inactive)

row,Compound,Kd
1,COc1cccc(N2CCN(C(=O)c3cccnc3)CC2)c1,> 4 mM (inactive)
2,CC(=O)O[C@H]1C[C@@H](OC(C)=O)C(C)(C)C2C[C@@H](OC(C)=O)[C@]3(C)C(CC[C@@]4(C)[C@H](c5ccoc5)OC(=O)[C@H]5O[C@]543)[C@]21C (stereo partly drawn),> 4 mM (inactive)
3,CCOC(=O)C1CCN(c2ccc(C#N)cc2)CC1,> 4 mM (inactive)
4,O=C(O)CSCc1c(F)cccc1Cl,> 4 mM (inactive)
5,COC(=O)Cc1cccc(OC)c1,> 4 mM (inactive)
6,O=CN1CCN(C(=O)c2ccccc2Cl)CC1,> 4 mM (inactive)
7,NC1=NC(=O)/C(=C\c2ccco2)S1,> 4 mM (inactive)
8,NCc1ccc(S(=O)(=O)O)cc1,> 4 mM (inactive)
9,CC1=C(/C=C/C(C)=C/C=C/C(C)=C/C=C/C=C(C)/C=C/C=C(C)/C=C/C2=C(C)CCCC2(C)C)C(C)(C)CCC1,> 4 mM (inactive)
10,CCC(C)C(=O)O[C@H]1[C@H](O)C2C(CN3CC(C)CCC3[C@@]2(C)O)C2C[C@]34O[C@]5(O)C(OC(=O)C(C)(O)C(C)O)CC[C@@]3(C)C5C(OC(C)=O)[C@@H](OC(C)=O)C4[C@@]21O (stereo partly drawn),> 4 mM (inactive)
11,Nc1cccc(-n2cccc2)c1,> 4 mM (inactive)
12,CCN=Cc1c(O)n(-c2ccccc2C)c(=O)[nH]c1=O,> 4 mM (inactive)
13,COc1ccc(S(=O)(=O)N2CCOCC2)cc1C(C)C,> 4 mM (inactive)
14,CCC(=O)NC(=S)Nc1ccc(C(N)=O)cc1,> 4 mM (inactive)
15,CC(=O)N1CCc2cc(NC(=O)c3ccc(C)cc3)ccc21,> 4 mM (inactive)
16,O=C(O)CCC(=O)c1c[nH]c2ccccc12,> 4 mM (inactive)
17,CC(C)=CCOc1cc2oc(=O)ccc2cc1O,> 4 mM (inactive)
18,OCc1csc(-c2cccs2)n1,> 4 mM (inactive)
19,COc1cc(C(=S)N2CCC(C(N)=O)CC2)ccc1O,> 4 mM (inactive)
20,O=c1c(-c2cccs2)[n+]([O-])c2ccccc2n1O,> 4 mM (inactive)

row,Compound,Kd
1,O=C(Nc1ccccc1)c1cccc(N2C(=O)CCC2=O)c1,> 4 mM (inactive)
2,O=C(Nc1nncs1)c1c(F)cccc1F,> 4 mM (inactive)
3,CN(C)Cc1nc2c([nH]1)c(=O)[nH]c(=O)n2C,> 4 mM (inactive)
4,COc1ccc(NC(=O)C2CC(=O)N=C(N)S2)cc1 (stereo not drawn),> 4 mM (inactive)
5,COc1cccc(NC(=O)c2cccs2)c1,> 4 mM (inactive)
6,Cn1nnc2cc(C(=O)NCc3ccco3)ccc21,> 4 mM (inactive)
7,Cc1sc2nc(SCC(=O)N(C)C)[nH]c(=O)c2c1C,> 4 mM (inactive)
8,Cc1nc(NCc2ccco2)nc2c1C(=O)CC(C)C2 (stereo not drawn),> 4 mM (inactive)
9,CC(=O)NCS(=O)(=O)c1ccc(C)cc1,> 4 mM (inactive)
10,O=S1(=O)CCC(NC(=S)Nc2ccccn2)C1 (stereo not drawn),> 4 mM (inactive)
11,CSc1ccccc1NC(=O)c1c(C)noc1C,> 4 mM (inactive)
12,CC(C)=CCc1c2c(c(O)c3c(=O)c(O)c(-c4ccccc4)oc13)C=CC(C)(C)O2,> 4 mM (inactive)
13,CC(=O)Nc1cccc(NC(=O)c2cccnc2)c1,> 4 mM (inactive)
14,CC[C@H](/C=C/C(C)C1CCC2C3CCC4=CC(=O)CC[C@]4(C)C3CC[C@]12C)C(C)C (stereo partly drawn),> 4 mM (inactive)
15,CCOC(=O)c1c(C)nc2cc(C)ccn12,> 4 mM (inactive)
16,NC1CSCC1O (stereo not drawn),> 4 mM (inactive)
17,O=C(c1ccco1)N1C(=O)c2cccc3cccc1c23,> 4 mM (inactive)
18,O=C(CC1Nc2ccccc2NC1=O)Nc1ccc(O)cc1 (stereo not drawn),> 4 mM (inactive)
